How the values were obtained:
[1] = tested on: Human liver cancer-derived cells (HepG2) cell aggregates; experiment: Lipid droplet formation in HepG2 cell aggregates, refractive index distribution measuring method A2 (Example 1); assay type: cell-based; conditions: sodium oleate 0.5 mM, one day
Description: Human liver cancer-derived cells (HepG2) were cultured for one day in a cell culture vessel (“EZSPHERE” manufactured by AGC-Techno Glass Co., Ltd.) having low-cell-adhesive compartments to prepare cell aggregates. The low-cell-adhesive compartments are provided with a low-protein-adhesive coat. Cell aggregates were formed in a DMEM medium containing 10% fetal bovine serum in the low-cell-adhesive compartments. A portion of the cell aggregates was cultured for one day in a DMEM medium containing 1% fatty acid-free bovine serum albumin instead of fetal bovine serum, with addition of sodium oleate to a final concentration of 0.5 mM, to induce formation of lipid droplets. The remaining portion of the cell aggregates was cultured for an additional day in a DMEM medium containing 10% fetal bovine serum without the addition of oleic acid (control). […] In the obtained refractive index distribution data, a region where the refractive index (n) was greater than 1.337 was determined as a cell aggregate region. […] A region having a refractive index (n) of greater than 1.375 was determined as a lipid droplet region. The area of the lipid droplet region present in the cell aggregate region of interest was measured.

[2] = tested on: HepG2 cell aggregate (fatty liver model); experiment: Lipid droplet volume ratio by distance from center of gravity in HepG2 cell aggregates, measuring method C (Example 2); assay type: cell-based, Human
Description: Preparation of cell aggregates, homogenization, and induction of lipid droplet formation were carried out in the same manner as in Example 1. The refractive index distribution data was evaluated in accordance with Embodiment T3 (FIG. 42). The refractive index distribution data was obtained by the refractive index distribution measuring method C. In the obtained refractive index distribution data, the center of gravity C was calculated, and the refractive index distribution data was evaluated based on distances from the center of gravity C. It was divided into concentric circles at intervals of 2.5 μm from the center of gravity C, and the ratio of the volume of lipid droplets present therein was calculated. The lipid droplet region was set as a region having a refractive index n>1.37, cell region of spheroid as a region having a refractive index n>1.34 and a medium region as a region having a refractive index n≤1.34 and the calculation was carried out. The results of the cell aggregate of the oleic acid-treated HepG2 (fatty liver model) and the control (without oleic acid) were compared.

CCCCCCCC/C=C\CCCCCCCC(=O)O [oleic acid]
formation of lipid droplets (structures with high refractive index) ([1]; FIG. 41B): induced the formation of lipid droplets | area of the lipid droplet region per cell aggregate relative to control (without oleic acid) ([1]; lipid droplet region n>1.375, aggregates of maximum diameter 50 to 100 μm): 2.75 times | ratio of the volume of lipid droplets versus control (without oleic acid) ([2]; concentric circles at 2.5 μm intervals from center of gravity C, lipid droplet region n>1.37): greater ratio of the volume of lipid droplets | distance from the center of gravity where many lipid droplets exist ([2]; oleic acid-treated and control alike): about 20 μm
